For the assay, the system named is HBV. Description: HBV inhibition assay in HepAD38 cells (extracellular HBV DNA by direct qPCR). Type of assay: cell-based. As to conditions: Hepatitis B virus, 96 hours; for inhibition at 1 µM: compound at 1 µM; for inhibition at 1 µM / inhibition at 0.5 µM: relative to non-treated reference, read-out: Anti HBV Activity (conc µM); for inhibition at 0.5 µM: compound at 0.5 µM; for EC50: 8-point dose-response curve, read-out: HBV inh EC50. From the text: HepAD38 cell line (Ladner et al., Antimicrob Agents Chemother, 1997, 41, 1715-20) was used for HBV inhibition assays. HepAD38 is a subclone, derived from Hepatoblastoma cell line HepG2 (ATCC® Number: HB-8065™), that expresses HBV genome under the control of a tetracycline-responsive promoter in a TET-OFF system: addition of tetracycline suppresses HBV replication, while its removal switches on the process allowing HBV viral particles release in the cell supernatant. HepAD38 cell line is maintained in DMEM/F12, supplemented with 10% of fetal bovine serum, 1% of glutamine, 1% of penicillin/streptomycin, 0.4 mg/ml G418 and 0,3 ug/ml tetracycline. For the HBV inhibition assay, doxycycline-free medium is used in order to allow virion production.
HBV inhibition activity in vitro was performed in 96 multiwell plates. During the initial (primary) screening compounds were first tested in triplicates at concentrations of 0.1µM, 0.5µM amd 1µM. For selected compounds, an 8-point dose-response curve can be obtained using 1:2 serial dilutions (starting from 2.5 µM, 1.25µM or 0.4 µM, depending on the degree of inhibition observed during the primary screening). From the dose-response curves, half maximal effective concentration (EC50) can be calculated (see also below).
In more detail, compounds - typically dissolved in DMSO stock solutions - are diluted to 2x the final desired concentration in 100 µl of the above medium (without doxycycline) and plated in three replicates in the 96-well plates.
Simultaneously, HepAD38 cells - extensively pre-washed in tetracycline-free medium in order to induce HBV production - are suspended at 2*10^4 cells in 100 µl of tetracycline-free medium and added to each well of the plate, to yield a final assay volume of 200 µl DMSO - used for stock solutions and compounds dilutions - which is always present in the assays at a final concentration of 0.5%.
Plates are then incubated 96 hours at 37°C and then subjected to cell viability assay in order to define compounds cytotoxicity and to extracellular HBV quantification in order to evaluate antiviral activity of compounds. Cytotoxicity is assessed by a commercial fluorescence assay that measures the metabolic activity of cells, directly related to cell viability (Cell Titer Blue, Promega). Anti-HBV activity was evaluated by quantification of extracellular HBV DNA with direct qPCR. In particular, supernatant was collected and centrifuged for cell debris clarification, viral DNA was extracted from virions by addition of lysis buffer (1 mM 1,4-dithiothreitol, 0.2% sodium dodecyl sulphate) and incubated at 95°C for 10 min. Samples were then diluted 1:40 and real time PCR amplification was performed with SYBR green assay (Power SYBR™ Green PCR Master Mix-Thermo Fisher Scientific) and specific HBV primer (HBV-DF:5'-[…]-3' (SEQ ID No. 1), HBV-DR:5'-[…]-3' (SEQ ID No. 2)).
All HBV inhibition or antiviral activity data are typically reported in percent (%) relative to a non-treated reference sample. Excel and Graphpad Prism programs are typically used for data elaboration and EC50 calculation.

A word on the EC50: it is the concentration needed to bring the measured effect to its halfway point.

Consider `O=C(Nc1ccc(F)c(F)c1)c1ccc2c(c1)S(=O)(=O)NC1(CCC1)N2` [Example E12, N-(3,4-difluorophenyl)-2H,4H-spiro[benzo[e] [1,2,4]thiadiazine-3,1'-cyclobutane]-7-carboxamide 1,1-dioxide], for which the inhibition at 1 µM was above 50%. On the same count and under the same terms, under `O=C(Nc1cc(F)c(F)c(F)c1)c1ccc2c(c1)S(=O)(=O)NC1(CCOCC1)N2` [Example E13, N-(3,4,5-trifluorophenyl)-2',3',5',6'-tetrahydro-2H,4H-spiro[benzo[e] [1,2,4]thiadiazine-3,4'-pyran]-7-carboxamide1,1-dioxide] stands above 50%. Turning to `O=C(Nc1cc(F)c(F)c(F)c1)c1ccc2c(c1)S(=O)(=O)NC1(CCNCC1)N2` [Example E14, N-(3,4,5-trifluorophenyl)-2H,4H-spiro[benzo[e][1,2,4]thiadiazine-3,4'-piperidine]-7-carboxamide 1,1-dioxide], the inhibition at 0.5 µM was above 50%. For the compound `O=C(Nc1cc(F)c(F)c(F)c1)c1ccc2c(c1)S(=O)(=O)NC(C(F)(F)F)N2` (stereo not shown) [Example E15, 3-(trifluoromethyl)-N-(3,4,5-trifluorophenyl)-3,4-dihydro-2H-benzo[e][1,2,4]thiadiazine-7-carboxamide1,1-dioxide], the inhibition at 1 µM is below 50%. With `CC(C)OCCC1Nc2ccc(C(=O)Nc3cc(F)c(F)c(F)c3)cc2S(=O)(=O)N1` (stereo not shown) [Example E16, 3-(2-isopropoxyethyl)-N-(3,4,5-trifluorophenyl)-3,4-dihydro-2H-benzo[e][1,2,4]thiadiazine-7-carboxamide 1,1-dioxide], the inhibition at 1 µM was above 50%. On to `O=C(Nc1cc(F)c(F)c(F)c1)c1ccc2c(c1)S(=O)(=O)NC(C(F)F)N2` (stereo not shown) [Example E17, 3-(difluoromethyl)-N-(3,4,5-trifluorophenyl)-3,4-dihydro-2H-benzo[e][1,2,4]thiadiazine-7-carboxamide1,1-dioxide], for which the inhibition at 1 µM is above 50%. Regarding `CN1C(C(F)(F)F)Nc2ccc(C(=O)Nc3cc(F)c(F)c(F)c3)cc2S1(=O)=O` (stereo not shown) [Example E18, 2-methyl-3-(trifluoromethyl)-N-(3,4,5-trifluorophenyl)-3,4-dihydro-2H-benzo[e][1,2,4]thiadiazine-7-carboxamide1,1-dioxide], the inhibition at 0.5 µM was below 50%. In the case of `O=C(Nc1ccc(F)c(F)c1)c1ccc2c(c1)S(=O)(=O)NCN2` [Example E19, N-(3,4-difluorophenyl)-3,4-dihydro-2H-benzo[e][1,2,4]thiadiazine-7-carboxamide 1,1-dioxide], the inhibition at 1 µM was above 50%. Turning to `CC1Nc2ccc(C(=O)Nc3ccc(F)c(F)c3)cc2S(=O)(=O)N1` (stereo not shown) [Example E20, N-(3,4-difluorophenyl)-3-methyl-3,4-dihydro-2H-benzo[e][1,2,4]thiadiazine-7-carboxamide 1,1-dioxide], the inhibition at 1 µM is above 50%. Regarding `CC1Nc2ccc(C(=O)Nc3cc(F)c(F)c(F)c3)cc2S(=O)(=O)N1` (stereo not shown) [Example E21, 3-methyl-N-(3,4,5-trifluorophenyl)-3,4-dihydro-2H-benzo[e][1,2,4]thiadiazine-7-carboxamide 1,1-dioxide], the concentration for a half-maximal effect (EC50) was below 1000 nM. On to `O=C(Nc1cc(F)c(F)c(F)c1)c1ccc2c(c1)S(=O)(=O)NC(CCO)N2` (stereo not shown) [Example E22, 3-(2-hydroxyethyl)-N-(3,4,5-trifluorophenyl)-3,4-dihydro-2H-benzo[e][1,2,4]thiadiazine-7-carboxamide 1,1-dioxide], for which the inhibition at 0.5 µM was above 50%. Same read-out and setting: under `C[C@H](O)C1Nc2ccc(C(=O)Nc3cc(F)c(F)c(F)c3)cc2S(=O)(=O)N1` (stereo partly drawn) [Example E23, 3-((S)-1-hydroxyethyl)-N-(3,4,5-trifluorophenyl)-3,4-dihydro-2H-benzo[e][1,2,4]thiadiazine-7-carboxamide 1,1-dioxide] stands above 50%. Take `C[C@@H](O)C1Nc2ccc(C(=O)Nc3cc(F)c(F)c(F)c3)cc2S(=O)(=O)N1` (stereo partly drawn) [Example E24, 3-((R)-1-hydroxyethyl)-N-(3,4,5-trifluorophenyl)-3,4-dihydro-2H-benzo[e][1,2,4]thiadiazine-7-carboxamide 1,1-dioxide]: the inhibition at 0.5 µM is above 50%. The same measure, in the same setting: under `C[C@H](O)C1=NS(=O)(=O)c2cc(C(=O)Nc3cc(F)c(F)c(F)c3)ccc2N1` [Example E25, (S)-3-(1-hydroxyethyl)-N-(3,4,5-trifluorophenyl)-4H-benzo[e][1,2,4]thiadiazine-7-carboxamide1,1-dioxide] stands below 50%; under `O=C(Nc1cc(F)c(F)c(F)c1)c1ccc2c(c1)S(=O)(=O)NC([C@@H](O)CO)N2` (stereo partly drawn) [Example E26, 3-((R)-1,2-dihydroxyethyl)-N-(3,4,5-trifluorophenyl)-3,4-dihydro-2H-benzo[e][1,2,4]thiadiazine-7-carboxamide 1,1-dioxide], above 50%. In the case of `CC1(C)Nc2ccc(C(=O)Nc3cc(F)c(F)c(F)c3)cc2S(=O)(=O)N1` [Example E27, 3,3-dimethyl-N-(3,4,5-trifluorophenyl)-3,4-dihydro-2H-benzo[e][1,2,4]thiadiazine-7-carboxamide 1,1-dioxide], the inhibition at 0.5 µM was above 50%.

For `O=C(Nc1cc(F)c(F)c(F)c1)c1ccc2c(c1)S(=O)(=O)NC(CO)N2` (stereo not shown) [Example E28, 3-(hydroxymethyl)-N-(3,4,5-trifluorophenyl)-3,4-dihydro-2H-benzo[e][1,2,4]thiadiazine-7-carboxamide 1,1-dioxide], the inhibition at 0.5 µM is above 50%.

Take `NCC1Nc2ccc(C(=O)Nc3cc(F)c(F)c(F)c3)cc2S(=O)(=O)N1` (stereo not shown) [Example E29, 3-(aminomethyl)-N-(3,4,5-trifluorophenyl)-3,4-dihydro-2H-benzo[e][1,2,4]thiadiazine-7-carboxamide 1,1-dioxide]: the inhibition at 1 µM is above 50%.

As to `CC(=O)NCC1Nc2ccc(C(=O)Nc3cc(F)c(F)c(F)c3)cc2S(=O)(=O)N1` (stereo not shown) [Example E30, 3-(acetamidomethyl)-N-(3,4,5-trifluorophenyl)-3,4-dihydro-2H-benzo[e][1,2,4]thiadiazine-7-carboxamide 1,1-dioxide], the inhibition at 1 µM was above 50%. On the same count and under the same terms, under `CC(C)(C)OC(=O)N1CCC(C2Nc3ccc(C(=O)Nc4cc(F)c(F)c(F)c4)cc3S(=O)(=O)N2)CC1` (stereo not shown) [Example E31, tert-butyl 4-(1,1-dioxido-7-((3,4,5-trifluorophenyl)carbamoyl)-3,4-dihydro-2H-benzo[e] [1,2,4]thiadiazin-3-yl)piperidine-1-carboxylate] stands above 50%. On to `O=C(Nc1cc(F)c(F)c(F)c1)c1ccc2c(c1)S(=O)(=O)NC(C1CCNCC1)N2` (stereo not shown) [Example E32, 3-(piperidin-4-yl)-N-(3,4,5-trifluorophenyl)-3,4-dihydro-2H-benzo[e][1,2,4]thiadiazine-7-carboxamide 1,1-dioxide], for which the EC50 was below 1000 nM. For the compound `CN1C(C2CCNCC2)Nc2ccc(C(=O)Nc3cc(F)c(F)c(F)c3)cc2S1(=O)=O` (stereo not shown) [Example E33, 2-methyl-3-(piperidin-4-yl)-N-(3,4,5-trifluorophenyl)-3,4-dihydro-2H-benzo[e][1,2,4]thiadiazine-7-carboxamide 1,1-dioxide], the inhibition at 0.5 µM is below 50%. For `O=C(Nc1cc(F)c(F)c(F)c1)c1cc2c(cc1Cl)NC1(CCC1)NS2(=O)=O` [Example E34, 6-chloro-N-(3,4,5-trifluorophenyl)-2H,4H-spiro[benzo[e] [1,2,4]thiadiazine-3,1'-cyclobutane]-7-carboxamide 1,1-dioxide], the inhibition at 1 µM is below 50%. As to `O=C(Nc1cc(F)c(F)c(F)c1)c1ccc2c(c1)S(=O)(=O)NC(c1c(F)cccc1F)N2` (stereo not shown) [Example E35, 3-(2,6-difluorophenyl)-N-(3,4,5-trifluorophenyl)-3,4-dihydro-2H-benzo[e][1,2,4]thiadiazine-7-carboxamide 1,1-dioxide], the EC50 was below 1000 nM.

Consider `O=C(Nc1cc(F)c(F)c(F)c1)c1cc2c(cc1Cl)NC(c1nccs1)NS2(=O)=O` (stereo not shown) [Example E36, 6-chloro-3-(thiazol-2-yl)-N-(3,4,5-trifluorophenyl)-3,4-dihydro-2H-benzo[e][1,2,4]thiadiazine-7-carboxamide 1,1-dioxide], for which the inhibition at 1 µM is above 50%.

The record behind these values is patent EP3597653A1, “CYCLIC INHIBITORS OF HEPATITIS B VIRUS” (IRBM S.P.A., priority 2018, dated 2020).
